In patent US20120090043A1, “TARGETS FOR RETROVIRUS ASSOCIATED DISEASES” (priority 2009, published 2012):
Peptide text beside a SMILES is read from it. * marks the point of attachment. Cbz = O=C(OCc1ccccc1)*

Columns and labels:
[1] = system: HTLV-1 transformed cell line (MT4); assay: Quantitative RT-PCR of HTLV-1 mRNA in MT4 cells after γ-secretase (Notch pathway) inhibition; assay type: cell-based; details: 1 μM, 48 hours, vs vehicle (0.5% DMSO), mRNA relative to GAPDH
Experimental: FIG. 9 illustrates relative HTLV1-HBZ, -Gag and -Tax mRNA expression following MT4 cells treatment with vehicle (0.5% DMSO) or 1 μM of γ-secretase inhibitor L685,458. Viral mRNA expression data are calculated relative to GAPDH mRNA expression data as 2̂(CT(GAPDH)-CT(HBZ/Gag/Tax)) over three times triplicate experiments for each gene.
HTLV-1 transformed cell line (MT4) from Dr. Douglas Richman (Harada et al. Science, 1985, col. 229, p. 563-566) was obtained through the AIDS Research and Reference Reagent Program, Division of AIDS, NIAID, NIH. MT4 cells were cultured in RPMI supplemented with 10% fetal bovine serum and antibiotics. MT-4 cells were treated for 48 hours with a γ-secretase inhibitor (L-685,458) (Shearman et al. Biochemistry, 2000, vol. 39, 8698-8704). at 1 μM or vehicle (0.5% DMSO). Total RNA were then isolated by Trizol method, subjected to Dnase treatment and cDNAs synthesized using the RevertAid First Strand cDNA Synthesis kit according to the manufacturer instructions (Fermentas). Quantitative Real-time PCR for GAPDH, HBZ, Gag and Tax expression was performed on StepOne instrument (Applied Biosystem) using SYBR green dye (Eurogentec). Viral mRNA expression data are calculated relative to GAPDH mRNA expression data as 2̂(CT(GAPDH)—CT(HBZ/Gag/Tax)) over three times triplicate experiments for each gene, and differences were assessed through one-tailed Student's t-test.
To directly assess the involvement of the Notch pathway in viral infection, we treated HTLV-1 transformed cell line (MT4) with a γ-secretase inhibitor (GSI) (L-685,458) and tested whether inhibition of the Notch pathway could influence HTLV-1 expression in MT4 cell line.

[2] = system: TRAF2; assay: Western blot of HIV-1 Gag induced TRAF2 degradation in HEK293T cells; assay type: cell-based, human
Text: FIG. 8 illustrates (A) Western-blotting of HEK293T cell extracts transfected with expressing vectors for GST-TRAF2 or truncated mutants deltaTRAF2 and deltaRING and p55 GAG/GFP, as indicated. Cell extracts were immunobloted with anti-GST, anti-GFP and anti-actin antibodies. (B) Western-blotting of HEK293T cells transfected with expressing vectors for GST-TRAF2 or GST-deltaRING truncated mutant, p55 GAG/GFP and Myc-Ubiquitin, as indicated. Cell extracts were immunobloted with anti-GST, anti-Myc and anti-actin antibodies. (C) Cells were pretreated with the cathepsin B inhibitor CA-074Me (10 μM) or the proteasomal inhibitor MG-132 (1 μM) for 24 H. Cell lysates were analysed as in (B).
To further corroborate that HIV Gag protein targets TRAF2 for proteasomal degradation, we first co-expressed in HEK293 cells HIV-1 Gag and TRAF2 or its truncation mutants lacking the TRAF domain (ΔTRAF) required for upstream signaling, or lacking the RING domain (ΔRING) required for E3 ubiquitin ligase function and downstream signaling. […]
In the presence of HIV-1 Gag we observed reduction of TRAF2 and ΔTRAF protein levels but not with the RING domain truncated mutant (FIG. 8A). To test whether TRAF2-E3 ubiquitin ligase activity was affected by HIV1 Gag, we next co-transfected a Myc-Ubiquitin expressing vector and evaluated the levels of Myc-tagged cellular ubiquitylated proteins by immunoblotting. […]

[3] = system: HTLV-1 LTR promoter transactivation by HTLV-1 Tax; assay: Transactivation assay, HTLV-1 LTR luciferase reporter with HTLV-1 Tax; assay type: cell-based; details: HEK293 cells co-transfected with pHTLV1LTR-Luc, HTLV-1 Tax and the human ORF; relative luciferase activity 24 h post-transfection; positive if >=2 or <=0.5 and p<0.05
Text: (§1) Twenty-four hours post-transfection, cells were washed three times with PBS, lysed and luciferase activities determined from two independent transfection experiments in triplicate. We computed a paired t-test to assess the difference of the means between samples with and without the human interactor. For a trial to be considered positive, the relative luciferase activities has to be >=2 or <=0.5, and the p-value of the t-test<0.05.
Expression vectors encoding human ORFs and HIV-1 Tat or HTLV-1 Tax proteins were tested in a transactivation reporter assay against reporter plasmids harboring HIV-1 or HTLV-1 viral promoter sequences cloned upstream of the luciferase reporter gene. […] Wherever not expressly specified, constructs used herein were generally made by sub-cloning entry clones from the ORFeome V3.1 into suitable destination vectors.

[4] = system: HIV-1 LTR promoter transactivation by HIV-1 Tat; assay: Transactivation assay, HIV-1 LTR luciferase reporter with HIV-1 Tat; assay type: cell-based; details: HEK293 cells co-transfected with pHIV1LTR-Luc, HIV-1 Tat and the human ORF; relative luciferase activity 24 h post-transfection; positive if >=2 or <=0.5 and p<0.05
Text: as §1, with “The plasmids pHIV1LTR-Luc or pHTLV1LTR-Luc containing a luciferase reporter gene under the control of the HIV-1 or HTLV-1 LTR promoters and plasmids expressing either HIV-1 Tat or HTLV-1 Tax and each human ORF found to interact with viral proteins were transfected into 10^4 HEK293 cells using the calcium phosphate method. Twenty-four” for “Twenty-four”
Many HIV/HTLV-human interactions in our data set (130/212) involved the retroviral transactivator proteins HTLV-1 Tax (57/212), HTLV-2 Tax2 (49/212), HIV-1 Tat (10/212) and HIV-2 Tat (14/212). Human proteins interacting with viral transactivators likely influence Tat or Tax transactivation. Expression vectors encoding human ORFs and HIV-1 Tat or HTLV-1 Tax proteins were tested in a transactivation reporter assay against reporter plasmids harboring HIV-1 or HTLV-1 viral promoter sequences cloned upstream of the luciferase reporter gene. In the controls Tat or Tax respectively activated HIV or HTLV LTR-directed gene expression. Co-transfection of interacting human ORFs identified 71 proteins (54% of the 131 human targets in our data set) that regulated HIV (26.7% of targets), HTLV (37.4% of targets) or both (9.9% of targets) LTR promoter activation by Tat or Tax (see Tables 7 and 8; Table 13 below containing quantitative data on the regulation of transactivation). Wherever not expressly specified, constructs used herein were generally made by sub-cloning entry clones from the ORFeome V3.1 into suitable destination vectors.

Molecule	HTLV_LTR transactiv. [3]	HIV_LTR transactiv. [4]	further results
CC(C)C[C@H](NC(=O)[C@H](Cc1ccccc1)C[C@@H](O)[C@H](Cc1ccccc1)NC(=O)OC(C)(C)C)C(=O)N[C@@H](Cc1ccccc1)C(N)=O [L-685,458]			HTLV-1 Tax1 expression ([1]; p<0.003): significantly lowers; HTLV-1 Gag expression ([1]; p<0.04): significantly lowers; HTLV-1 HBZ expression ([1]; p<2.1E-5): significantly lowers
CC(C)C[C@@H](C=O)NC(=O)[C@H](CC(C)C)NC(=O)[C@H](CC(C)C)NC(=O)OCc1ccccc1 [MG132] (Cbz-Leu-Leu-Leu-aldehyde)			HIV1-Gag induced degradation of TRAF2 ([2]; FIG. 6): not inhibited; HIV-1 Gag induced degradation of TRAF2 ([2]; HEK293T cells pretreated with 1 μM for 24 H, FIG. 8C): could be blocked
BHLHB2: human host interactor protein, Gene ID 8553, expressed from transfected ORF vector	0.20 fold change		
C8orf32: human host interactor protein, Gene ID 55093, expressed from transfected ORF vector	0.26 fold change		
CRX: human host interactor protein, Gene ID 1406, expressed from transfected ORF vector		0.24 fold change	
DVL2: human host interactor protein, Gene ID 1856, expressed from transfected ORF vector		0.40 fold change	
FXR2: human host interactor protein, Gene ID 9513, expressed from transfected ORF vector	0.38 fold change		
HOXA3: human host interactor protein, Gene ID 3200, expressed from transfected ORF vector	0.25 fold change	0.29 fold change	
HOXB9: human host interactor protein, Gene ID 3219, expressed from transfected ORF vector	3.69 fold change		
KCTD1: human host interactor protein, Gene ID 284252, expressed from transfected ORF vector	0.42 fold change		
LOC91661: human host interactor protein, Gene ID 91661, expressed from transfected ORF vector		0.16 fold change	
NOS3: human host interactor protein, Gene ID 4846, expressed from transfected ORF vector	0.45 fold change		
OTX2: human host interactor protein, Gene ID 5015, expressed from transfected ORF vector	7.37 fold change		
PCBP1: human host interactor protein, Gene ID 5093, expressed from transfected ORF vector	0.44 fold change		
PSMF1: human host interactor protein, Gene ID 9491, expressed from transfected ORF vector	14.83 fold change		
UBE2I: human host interactor protein, Gene ID 7329, expressed from transfected ORF vector		3.34 fold change	
ZMAT1: human host interactor protein, Gene ID 84460, expressed from transfected ORF vector		0.20 fold change	
